In patent publication US20240336622A1 (The Board of Regents of The University of Texas System, priority 2021, published 2024):

System: UWB1 cells
Experiment: cells
Conditions: read-out: IC50 (μM) UWB1 cells

Structure (SMILES)	IC50 [µM]
COC(=O)C[C@H]1[C@@H]2CC3=C(C)[C@@H](c4ccc(O[Si](C)(C)C(C)(C)C)cc4)C[C@@H]3O[C@@H]2[C@@H]2OC(=O)[C@]3(C)C=CC(=O)[C@@]1(C)[C@@H]23 [S-122]	0.0534
COC(=O)C[C@H]1[C@@H]2CC3=C(C)[C@H](c4ccccc4O[Si](C)(C)C(C)(C)C)C[C@@H]3O[C@@H]2[C@@H]2OC(=O)[C@]3(C)C=CC(=O)[C@@]1(C)[C@@H]23 [S-127]	0.927
C=C1[C@H](O[Si](C)(C)C)[C@H](O[Si](C)(C)C)[C@@H]2[C@](C)(C(=O)C=C[C@@]2(C)C(=O)OC)[C@H]1CC(=O)OC [S-16-a]	> 10
COC(=O)C[C@H]1[C@@H]2CC3=C(C)[C@@H](c4cccc(O[Si](C)(C)C(C)(C)C)c4)C[C@@H]3O[C@@H]2[C@@H]2OC(=O)[C@]3(C)C=CC(=O)[C@@]1(C)[C@@H]23 [S-116]	0.15
COC(=O)C[C@H]1[C@]2(C)C3=C(C)[C@H](c4ccccc4O[Si](C)(C)C(C)(C)C)C[C@H]3O[C@@H]2[C@@H]2OC(=O)[C@]3(C)C=CC(=O)[C@@]1(C)[C@@H]23 [S-128]	0.0908
COC(=O)C[C@H]1[C@]2(C)C3=C(C)[C@@H](c4ccc(O[Si](C)(C)C(C)(C)C)cc4)C[C@H]3O[C@@H]2[C@@H]2OC(=O)[C@]3(C)C=CC(=O)[C@@]1(C)[C@@H]23 (stereo in doubt) [S-120]	0.165
CC[Si](CC)(CC)O[C@H]1C(=O)[C@H](CC(=O)OC)[C@@]2(C)C=CC(=O)[C@@]3(C)C(=O)O[C@@H]1[C@@H]32 [S-38]	> 10
COC(=O)C[C@H]1[C@]2(C)C3=C(C)[C@@H](c4cccc(O[Si](C)(C)C(C)(C)C)c4)C[C@H]3O[C@@H]2[C@@H]2OC(=O)[C@]3(C)C=CC(=O)[C@@]1(C)[C@@H]23 [S-114]	0.242
COC(=O)C[C@H]1[C@@H]2CC3=C(C)[C@@H](c4cccc(O[Si](C)(C)C(C)(C)C)c4)C[C@H]3O[C@@H]2[C@@H]2OC(=O)[C@]3(C)C=CC(=O)[C@@]1(C)[C@@H]23 [S-115]	0.196
COC(=O)C[C@H]1[C@@H]2CC3=C(C)[C@H](c4ccccc4O[Si](C)(C)C(C)(C)C)C[C@H]3O[C@@H]2[C@@H]2OC(=O)[C@]3(C)C=CC(=O)[C@@]1(C)[C@@H]23 [S-129]	0.163
COC(=O)C[C@H]1[C@]2(C)C3=C(C)[C@H](c4cccc(O[Si](C)(C)C(C)(C)C)c4)C[C@H]3O[C@@H]2[C@@H]2OC(=O)[C@]3(C)C=CC(=O)[C@@]1(C)[C@@H]23 [S-112]	0.219

Same assay, conditions: read-out: IC50 (μM) UWB1 cells, UWB1 cell viability

Structure (SMILES)	IC50 [µM]
COC(=O)C[C@H]1[C@@H]2CC3=C(C)[C@@H](c4ccc(C(=O)NC(C)(C)C)cc4)C[C@@H]3O[C@@H]2[C@@H]2OC(=O)[C@]3(C)C=CC(=O)[C@@]1(C)[C@@H]23 [S-153]	0.245
COC(=O)C[C@H]1[C@]2(C)C3=C(C)[C@@H](c4ccc(-c5cc(C(C)(C)C)cc(C(C)(C)C)c5)cc4)C[C@H]3O[C@@H]2[C@@H]2OC(=O)[C@]3(C)C=CC(=O)[C@@]1(C)[C@@H]23 [S-135]	0.185
COC(=O)C[C@H]1[C@@H]2CC3=C(C)[C@@H](c4ccc(C(C)(C)C)cc4)C[C@@H]3O[C@@H]2[C@@H]2OC(=O)[C@]3(C)C=CC(=O)[C@@]1(C)[C@@H]23 [S-144]	0.14
COC(=O)C[C@H]1[C@@H]2CC3=C(C)[C@H](c4ccc(-c5cc(C(C)(C)C)cc(C(C)(C)C)c5)cc4)C[C@@H]3O[C@@H]2[C@@H]2OC(=O)[C@]3(C)C=CC(=O)[C@@]1(C)[C@@H]23 [S-134]	0.091
COC(=O)C[C@H]1[C@@H]2CC3=C(C)[C@@H](c4ccc(OC)cc4)C[C@@H]3O[C@@H]2[C@@H]2OC(=O)[C@]3(C)C=CC(=O)[C@@]1(C)[C@@H]23 [S-109]	0.17
COC(=O)C[C@H]1[C@@H]2CC3=C(C)[C@H](c4ccccc4)C[C@@H]3O[C@@H]2[C@@H]2OC(=O)[C@]3(C)C=CC(=O)[C@@]1(C)[C@@H]23 [S-102]	0.17
COC(=O)C[C@H]1[C@]2(C)C3=C(C)[C@H](c4ccoc4-c4ccc(C(=O)NC(C)(C)C)cc4)C[C@H]3O[C@@H]2[C@@H]2OC(=O)[C@]3(C)C=CC(=O)[C@@]1(C)[C@@H]23 [S-52]	0.199
COC(=O)C[C@H]1[C@]2(C)C3=C(C)CC[C@H]3O[C@@H]2[C@@H]2OC(=O)[C@]3(C)C=CC(=O)[C@@]1(C)[C@@H]23 [S-97]	1.45
COC(=O)C[C@H]1[C@@H]2CC3=C(C)[C@@H](c4ccoc4)C[C@@H]3O[C@@H]2[C@@H]2OC(=O)[C@]3(C)C=CC(=O)[C@@]1(C)[C@@H]23 [S-99]	0.88
COC(=O)C[C@H]1[C@]2(C)C3=C(C)[C@H](c4ccoc4-c4ccc([N+](=O)[O-])cc4)C[C@H]3O[C@@H]2[C@@H]2OC(=O)[C@]3(C)C=CC(=O)[C@@]1(C)[C@@H]23 [S-49]	0.194
COC(=O)C[C@H]1[C@]2(C)C3=C(C)[C@H](c4ccc(OC)cc4)C[C@H]3O[C@@H]2[C@@H]2OC(=O)[C@]3(C)C=CC(=O)[C@@]1(C)[C@@H]23 [S-107]	0.27
COC(=O)C[C@H]1[C@@H]2CC3=C(C)[C@H](c4ccc(OC(=O)C(C)(C)C)cc4)C[C@@H]3O[C@@H]2[C@@H]2OC(=O)[C@]3(C)C=CC(=O)[C@@]1(C)[C@@H]23 [S-126]	0.141
COC(=O)C[C@H]1[C@]2(C)C3=C(C)[C@H](C4CCCCC4)C[C@H]3O[C@@H]2[C@@H]2OC(=O)[C@]3(C)C=CC(=O)[C@@]1(C)[C@@H]23 [S-104]	0.21
C=C1[C@H](O[C@H]2C=C(C)[C@H](c3ccoc3)C2)[C@@H]2OC(=O)[C@]3(C)C=CC(=O)[C@@](C)([C@@H]23)[C@H]1CC(=O)OC [S-54]	0.265
COC(=O)C[C@H]1[C@]2(C)C3=C(C)[C@H](c4ccoc4-c4ccc(C=O)cc4)C[C@H]3O[C@@H]2[C@@H]2OC(=O)[C@]3(C)C=CC(=O)[C@@]1(C)[C@@H]23 [S-45]	0.251
COC(=O)C[C@H]1[C@]2(C)C3=C(C)[C@H](c4ccoc4)C[C@H]3O[C@@H]2[C@H](OC(C)=O)[C@H]2C(C)=CCC(=O)[C@]12C [S-62, nimbinene]	> 10
COC(=O)C[C@H]1[C@]2(C)C3=C(C)[C@H](c4ccoc4-c4ccc(C(=O)OC)cc4)C[C@H]3O[C@@H]2[C@@H]2OC(=O)[C@]3(C)C=CC(=O)[C@@]1(C)[C@@H]23 [S-59]	0.203
COC(=O)C[C@H]1[C@]2(C)C3=C(C)[C@H](c4ccoc4)C[C@H]3O[C@@H]2[C@@H]2OC(=O)[C@]3(C)C=C[C@@H](O)[C@@]1(C)[C@@H]23 [S-55]	> 10

Structure (SMILES)	IC50 [µM]
COC(=O)C[C@H]1[C@]2(C)C3=C(C)[C@H](c4ccoc4)C[C@H]3O[C@@H]2[C@H](O)[C@@H]2[C@]1(C)C(=O)C=C[C@@]2(C)C(=O)OC [S-63, 6-deacetylnimbin]	> 10
COC(=O)C[C@H]1[C@@H]2CC3=C(C)[C@@H](C4CCCCC4)C[C@@H]3O[C@@H]2[C@@H]2OC(=O)[C@]3(C)C=CC(=O)[C@@]1(C)[C@@H]23 [S-106]	0.16
COC(=O)C[C@H]1[C@@H]2CC3=C(C)[C@@H](c4ccc(C=O)cc4)C[C@@H]3O[C@@H]2[C@@H]2OC(=O)[C@]3(C)C=CC(=O)[C@@]1(C)[C@@H]23 [S-151]	0.766
COC(=O)C[C@H]1[C@]2(C)C3=C(C)[C@H](c4ccoc4)C[C@H]3O[C@@H]2[C@H](OC(C)=O)[C@@H]2[C@]1(C)C(=O)C=C[C@@]2(C)C(=O)OC [S-64, nimbin]	> 10
C=C1[C@H](O[C@H]2C=C(C)[C@H](c3ccoc3)C2)[C@@H]2OC(=O)[C@]3(C)C=CC(=O)[C@@](C)([C@@H]23)[C@H]1CC(=O)OC [S-26-1]	0.265
COC(=O)C[C@H]1[C@@H]2CC3=C(C)[C@@H](c4ccc(-c5cc(C(C)(C)C)cc(C(C)(C)C)c5)cc4)C[C@@H]3O[C@@H]2[C@@H]2OC(=O)[C@]3(C)C=CC(=O)[C@@]1(C)[C@@H]23 [S-137]	0.169
COC(=O)C[C@H]1[C@]2(C)C3=C(C)[C@H](c4ccc(O)cc4)C[C@H]3O[C@@H]2[C@@H]2OC(=O)[C@]3(C)C=CC(=O)[C@@]1(C)[C@@H]23 [S-123]	0.464
COC(=O)C[C@H]1[C@@H]2CC3=C(C)[C@H](c4ccoc4)C[C@@H]3O[C@@H]2[C@@H]2OC(=O)[C@]3(C)C=CC(=O)[C@@]1(C)[C@@H]23 [S-57]	0.591
COC(=O)C[C@H]1[C@]2(C)C3=C(C)[C@H](c4ccoc4)C[C@H]3O[C@@H]2[C@H](O)[C@H]2C(C)=CCC(=O)[C@]12C [S-61, 6-deacetylnimbinene]	> 10
C#CCOC(=O)c1ccc(-c2occc2[C@@H]2C[C@H]3O[C@@H]4[C@@H]5OC(=O)[C@]6(C)C=CC(=O)[C@](C)([C@@H](CC(=O)OC)[C@]4(C)C3=C2C)[C@@H]56)cc1 [S-112a]	0.198
COC(=O)C[C@H]1[C@]2(C)C3=C(C)[C@H](c4ccc(OC(=O)C(C)(C)C)cc4)C[C@H]3O[C@@H]2[C@@H]2OC(=O)[C@]3(C)C=CC(=O)[C@@]1(C)[C@@H]23 [S-124]	0.564
COC(=O)C[C@H]1[C@@H]2CC3=C(C)[C@H](c4ccc(OC)cc4)C[C@@H]3O[C@@H]2[C@@H]2OC(=O)[C@]3(C)C=CC(=O)[C@@]1(C)[C@@H]23 [S-108]	0.11
COC(=O)C[C@H]1[C@]2(C)C3=C(C)[C@H](c4ccc(-c5cc(C(C)(C)C)cc(C(C)(C)C)c5)cc4)C[C@H]3O[C@@H]2[C@@H]2OC(=O)[C@]3(C)C=CC(=O)[C@@]1(C)[C@@H]23 [S-132]	0.142
C=C1[C@H](O[C@H]2CCC(C(C)C)=C2I)[C@@H]2OC(=O)[C@]3(C)C=CC(=O)[C@@](C)([C@@H]23)[C@H]1CC(=O)OC [S-111]	0.255
COC(=O)C[C@H]1[C@]2(C)C3=C(C)[C@H](c4ccoc4-c4cccc5c4ccn5C)C[C@H]3O[C@@H]2[C@@H]2OC(=O)[C@]3(C)C=CC(=O)[C@@]1(C)[C@@H]23 [S-42]	0.144
COC(=O)C[C@H]1[C@]2(C)C3=C(C)[C@H](c4ccoc4-c4ccccc4OC)C[C@H]3O[C@@H]2[C@H](O)[C@H]2C(C)=CCC(=O)[C@]12C [S-56]	> 10
COC(=O)C[C@H]1[C@]2(C)C3=C(C)[C@H](c4ccoc4-c4ccoc4)C[C@H]3O[C@@H]2[C@@H]2OC(=O)[C@]3(C)C=CC(=O)[C@@]1(C)[C@@H]23 [S-47]	0.296
COC(=O)C[C@H]1[C@@H]2CC3=C(C)[C@@H](c4ccc(OS(=O)(=O)c5ccc(C)cc5)cc4)C[C@@H]3O[C@@H]2[C@@H]2OC(=O)[C@]3(C)C=CC(=O)[C@@]1(C)[C@@H]23 [S-140]	0.119
